Measurements published in patent US11629138B2, “Microbiocidal picolinamide derivatives” (Syngenta Participations AG, priority 2017, dated 2023).

Tests used:
[1] = tested on: Phaeosphaeria nodorum (Setoria nodorum); experiment: Phaeosphaeria nodorum (Septoria nodorum) / wheat / leaf disc preventative (glume blotch); type: in vivo; conditions: Parastagonospora nodorum, foliar, 200 ppm in the formulation, wheat leaf segments cv. Kanzler, 5-7 days after application, vs untreated control, read-out: disease control
Procedure: Phaeosphaeria nodorum (Setoria nodorum)/Wheat/Leaf Disc Preventative (Glume Blotch) Wheat leaf segments cv. Kanzler are placed on agar in a multiwell plate (24-well format) and sprayed with the formulated test compound diluted in water. The leaf disks are inoculated with a spore suspension of the fungus 2 days after application. The inoculated test leaf disks are incubated at 20° C. and 75% rh under a light regime of 12 h light/12 h darkness in a climate cabinet and the activity of a compound is assessed as percent disease control compared to untreated when an appropriate level of disease damage appears in untreated check leaf disks (5-7 days after application).

[2] = tested on: Mycosphaerella graminicola (Septoria tritici); experiment: Mycosphaerella graminicola (Septoria tritici) / liquid culture (Septoria blotch); type: cell-based; conditions: Zymoseptoria tritici; 200 ppm in the formulation; PDB broth, 24° C., photometric, 4 to 5 days after application; vs untreated control; read-out: disease control (inhibition of growth)
Procedure: (§1) Mycosphaerella graminicola (Septoria tritici)/Liquid Culture (Septoria Blotch) Conidia of the fungus from cryogenic storage are directly mixed into nutrient broth (PDB potato dextrose broth). After placing a (DMSO) solution of test compound into a microtiter plate (96-well format), the nutrient broth containing the fungal spores is added. The test plates are incubated at 24° C. and the inhibition of growth is determined photometrically 4 to 5 days after application.

[3] = tested on: Glomerella lagenarium (Colletotrichum lagenarium); experiment: Glomerella lagenarium (Colletotrichum lagenarium) / liquid culture (anthracnose); type: cell-based; conditions: Colletotrichum orbiculare; 200 ppm in the formulation; PDB broth, 24° C., photometric, 3 to 4 days after application; vs untreated control; read-out: disease control (inhibition of growth)
Procedure: as §1, with “Glomerella lagenarium (Colletotrichum lagenarium)/Liquid” for “Mycosphaerella graminicola (Septoria tritici)/Liquid”, “(Anthracnose)” for “(Septoria Blotch)”, “measured” for “determined”, “photometrically 3 to” for “photometrically”, “4” for “4 to 5”

[4] = tested on: Magnaporthe grisea (Pyricularia oryzae); experiment: whole plant or invertebrate; type: in vivo; conditions: foliar, read-out: disease control
[5] = tested on: Puccinia recondita f. so. tritici; experiment: Puccinia recondita f. sp. tritici / wheat / leaf disc preventative (brown rust); type: in vivo; conditions: foliar, 200 ppm in the formulation, wheat leaf segments cv. Kanzler, 7-9 days after application, vs untreated control, read-out: disease control
Procedure: Puccinia recondita f. so. tritici/Wheat/Leaf Disc Preventative (Brown Rust)
Wheat leaf segments cv. Kanzler are placed on agar in multiwell plates (24-well format) and sprayed with the formulated test compound diluted in water. The leaf disks are inoculated with a spore suspension of the fungus 1 day after application. The inoculated leaf segments are incubated at 19° C. and 75% rh under a light regime of 12 h light/12 h darkness in a climate cabinet and the activity of a compound is assessed as percent disease control compared to untreated when an appropriate level of disease damage appears in untreated check leaf segments (7-9 days after application).

[6] = tested on: Mycosphaerella arachidis (Cercospora arachidicola); experiment: Mycosphaerella arachidis (Cercospora arachidicola) / liquid culture (early leaf spot); type: cell-based; conditions: 200 ppm in the formulation, PDB broth, 24° C., photometric, 4-5 days after application, vs untreated control, read-out: disease control (inhibition of growth)
Procedure: as §1, with “arachidis (Cercospora arachidicola)/Liquid” for “graminicola (Septoria tritici)/Liquid”, “(Early Leaf Soot)” for “(Septoria Blotch)”, “4-5” for “4 to 5”

[7] = tested on: Monographella nivalis (Microdochium nivale); experiment: Monographella nivalis (Microdochium nivale) / liquid culture (foot rot cereals); type: cell-based; conditions: 200 ppm in the formulation, PDB broth, 24° C., photometric, 4-5 days after application, vs untreated control, read-out: disease control (inhibition of growth)
Procedure: as §1, with “Monographella nivalis (Microdochium nivale)/Liquid” for “Mycosphaerella graminicola (Septoria tritici)/Liquid”, “(Foot Rot Cereals)” for “(Septoria Blotch)”, “4-5” for “4 to 5”

[8] = tested on: Botryotinia fuckeliana (Botrytis cinerea); experiment: Botryotinia fuckeliana (Botrytis cinerea) liquid culture (gray mould); type: cell-based; conditions: 200 ppm in the formulation, Vogels broth, 24° C., photometric, 3-4 days after application, vs untreated control, read-out: disease control (inhibition of growth)
Procedure: as §1, with “Botryotinia fuckeliana (Botrytis cinerea) Liquid” for “Mycosphaerella graminicola (Septoria tritici)/Liquid”, “(Gray Mould)” for “(Septoria Blotch)”, “(Vogels” for “(PDB potato dextrose”, “3-4” for “4 to 5”

Pythium ultimum = Pythium ultimum / liquid culture (seedling damping off); type: cell-based; conditions: Globisporangium ultimum; 200 ppm in the formulation; PDB broth, 24° C., photometric, 2-3 days after application; vs untreated control; read-out: disease control (inhibition of growth)
Procedure: Pythium ultimum/Liquid Culture (Seedling Damping Off) Mycelia fragments and oospores of a newly grown liquid culture of the fungus are directly mixed into nutrient broth (PDB potato dextrose broth). After placing a (DMSO) solution of test compound into a microtiter plate (96-well format), the nutrient broth containing the fungal mycelia/spore mixture is added. The test plates are incubated at 24° C. and the inhibition of growth is determined photometrically 2-3 days after application.

COc1ccnc(C(=O)N[C@@H](C)C(=O)OC(C)C(C)n2ccc3c(Br)ccc(F)c32)c1OC(C)=O (stereo partly drawn) [I.ab.041, [2-(4-bromo-7-fluoro-indol-1-yl)-1-methyl-propyl] (2S)-2-[(3-acetoxy-4-methoxy-pyridine-2-carbonyl)amino]propanoate]
≥ 80%: pest or weed control at 200 ppm [1] | inhibition at 200 ppm [2] | inhibition at 200 ppm [3] | pest or weed control at 200 ppm [4] | pest or weed control at 200 ppm [5] | inhibition at 200 ppm [6]

COc1ccnc(C(=O)N[C@@H](C)C(=O)OC(C)C(C)c2ncc(Cl)cc2Cl)c1O (stereo partly drawn) [I.an.001, [2-(3,5-dichloro-2-pyridyl)-1-methyl-propyl] (2S)-2-[(3-hydroxy-4-methoxy-pyridine-2-carbonyl)amino] propanoate]
≥ 80%: pest or weed control at 200 ppm [1] | inhibition at 200 ppm [2] | inhibition at 200 ppm [3] | pest or weed control at 200 ppm [4] | pest or weed control at 200 ppm [5] | inhibition at 200 ppm [6]

COc1ccnc(C(=O)N[C@@H](C)C(=O)OC(C)C(C)c2ncc(Cl)cc2Cl)c1OCOC(=O)C(C)C (stereo partly drawn) [I.an.081, [2-[[(1S)-2-[2-(3,5-dichloro-2-pyridyl)-1-methyl-propoxy]-1-methyl-2-oxo-ethyl]carbamoyl]-4-methoxy-3-pyridyl]oxymethyl 2-methylpropanoate]
≥ 80%: pest or weed control at 200 ppm [1] | inhibition at 200 ppm [2] | inhibition at 200 ppm [7] | pest or weed control at 200 ppm [4] | pest or weed control at 200 ppm [5] | inhibition at 200 ppm [6]

COc1ccnc(C(=O)N[C@@H](C)C(=O)OC(C)C(C)c2ccc(Cl)s2)c1O (stereo partly drawn) [I.ar.001, [2-(5-chloro-2-thienyl)-1-methyl-propyl] (2S)-2-[(3-hydroxy-4-methoxy-pyridine-2-carbonyl)amino]propanoate]
≥ 80%: inhibition at 200 ppm [2] | inhibition at 200 ppm [3] | inhibition at 200 ppm [7] | pest or weed control at 200 ppm [4] | pest or weed control at 200 ppm [5] | inhibition at 200 ppm [6]

COc1ccnc(C(=O)N[C@@H](C)C(=O)OC(C)C(C)c2sc3ccccc3c2C)c1O (stereo partly drawn) [I.as.001, [1-methyl-2-(3-methylbenzothiophen-2-yl)propyl] (2S)-2-[(3-hydroxy-4-methoxy-pyridine-2-carbonyl)amino]propanoate]
≥ 80%: inhibition at 200 ppm [8] | pest or weed control at 200 ppm [1] | inhibition at 200 ppm [2] | inhibition at 200 ppm [3] | inhibition at 200 ppm [7] | pest or weed control at 200 ppm [4] | pest or weed control at 200 ppm [5] | inhibition at 200 ppm [6]

COc1ccnc(C(=O)N[C@@H](C)C(=O)OC(C)C(C)n2ccc3cccc(Br)c32)c1O (stereo partly drawn) [I.ba.001, [2-(7-bromoindol-1-yl)-1-methyl-propyl] (2S)-2-[(3-hydroxy-4-methoxy-pyridine-2-carbonyl)amino]propanoate]
≥ 80%: pest or weed control at 200 ppm [1] | inhibition at 200 ppm [2] | inhibition at 200 ppm [3] | inhibition at 200 ppm [7] | pest or weed control at 200 ppm [4] | pest or weed control at 200 ppm [5] | inhibition at 200 ppm [6]

COc1ccnc(C(=O)N[C@@H](C)C(=O)OC(C)C(C)n2ccc3c(Cl)ccc(Cl)c32)c1O (stereo partly drawn) [I.bb.001, [2-(4,7-dichloroindol-1-yl)-1-methyl-propyl] (2S)-2-[(3-hydroxy-4-methoxy-pyridine-2-carbonyl)amino] propanoate]
≥ 80%: pest or weed control at 200 ppm [1] | inhibition at 200 ppm [2] | inhibition at 200 ppm [3] | inhibition at 200 ppm [7] | pest or weed control at 200 ppm [4] | pest or weed control at 200 ppm [5] | inhibition at 200 ppm [6]

COc1ccnc(C(=O)N[C@@H](C)C(=O)OC(C)C(C)n2ccc3cc(Br)ccc32)c1O (stereo partly drawn) [I.bc.001, [2-(5-bromoindol-1-yl)-1-methyl-propyl] (2S)-2-[(3-hydroxy-4-methoxy-pyridine-2-carbonyl)amino]propanoate]
≥ 80%: inhibition at 200 ppm [2] | inhibition at 200 ppm [3] | inhibition at 200 ppm [7] | pest or weed control at 200 ppm [4] | pest or weed control at 200 ppm [5] | inhibition at 200 ppm [6]

COc1ccnc(C(=O)N[C@@H](C)C(=O)OC(C)C(C)n2ccc3c(F)ccc(Br)c32)c1O (stereo partly drawn) [I.bd.001, [2-(7-bromo-4-fluoro-indol-1-yl)-1-methyl-propyl] (2S)-2-[(3-hydroxy-4-methoxy-pyridine-2-carbonyl)amino]propanoate]
≥ 80%: pest or weed control at 200 ppm [1] | inhibition at 200 ppm [2] | inhibition at 200 ppm [3] | inhibition at 200 ppm [7] | pest or weed control at 200 ppm [4] | pest or weed control at 200 ppm [5] | inhibition at 200 ppm [6]

COc1ccnc(C(=O)N[C@@H](C)C(=O)OC(C)C(C)n2ccc3c(F)ccc(Br)c32)c1OC(C)=O (stereo partly drawn) [I.bd.041, [2-(7-bromo-4-fluoro-indol-1-yl)-1-methyl-propyl] (2S)-2-[(3-acetoxy-4-methoxy-pyridine-2-carbonyl)amino]propanoate]
≥ 80%: pest or weed control at 200 ppm [1] | inhibition at 200 ppm [2] | inhibition at 200 ppm [3] | inhibition at 200 ppm [7] | pest or weed control at 200 ppm [4] | pest or weed control at 200 ppm [5] | inhibition at 200 ppm [6]

COc1ccnc(C(=O)N[C@@H](C)C(=O)OC(C)C(C)c2nc3ccccc3s2)c1O (stereo partly drawn) [I.e.001, [2-(1,3-benzothiazol-2-yl)-1-methyl-propyl] (2S)-2-[(3-hydroxy-4-methoxy-pyridine-2-carbonyl)amino] propanoate]
≥ 80%: inhibition at 200 ppm [8] | inhibition at 200 ppm [2] | inhibition at 200 ppm [3] | inhibition at 200 ppm [7] | pest or weed control at 200 ppm [4] | pest or weed control at 200 ppm [5] | inhibition at 200 ppm [6]

COc1ccnc(C(=O)N[C@@H](C)C(=O)OC(C)C(C)n2ccc3cc(Cl)ccc32)c1O (stereo partly drawn) [I.y.001, [2-(5-chloroindol-1-yl)-1-methyl-propyl] (2S)-2-[(3-hydroxy-4-methoxy-pyridine-2-carbonyl)amino]propanoate]
≥ 80%: inhibition at 200 ppm [8] | inhibition at 200 ppm [2] | inhibition at 200 ppm [3] | inhibition at 200 ppm [7] | inhibition at 200 ppm (Pythium ultimum) | pest or weed control at 200 ppm [5] | inhibition at 200 ppm [6]
